According to patent US8648198B2, “Phenylethanolamine-based NMDA receptor antagonists” (priority 2011, dated 2014):
Like-named read-outs stand apart in the source and are kept apart here.

Assays:
[1] = target: T1, GluN1-1b (L135N)/GluN2B (WT) (Rattus norvegicus, UniProt P35439+Q00960, L135N); test: Ifenprodil dose-response, recordings from Xenopus oocytes; type: cell-based; conditions: mean ± s.d.
T1 construct: expressed in transfected cells; host or cells: Xenopus oocytes (per the earlier reading)

GluN1b ATD = test: Isothermal titration calorimetry (ITC), GluN1b ATD alone; type: binding, Xenopus laevis; conditions: GluN1b ATD individually injected with ifenprodil
[2] = target: mixture of the GluN1b and GluN2B ATD proteins (Xenopus laevis (GluN1-4b ATD) / Rattus norvegicus (GluN2B ATD), UniProt A0A1L8F5J9+Q00960, E186G/INS190SKKRNYENLDQLSYDNKRGPK/N350Q/N61Q); test: Isothermal titration calorimetry (ITC), direct binding to mixed ATD proteins; set-up: species or system Xenopus laevis GluN1-4b / Rattus Norvegicus GluN2B
Chain of mixture of the GluN1b and GluN2B ATD proteins (Q00960 31-394, stated change not applied, other chains not shown): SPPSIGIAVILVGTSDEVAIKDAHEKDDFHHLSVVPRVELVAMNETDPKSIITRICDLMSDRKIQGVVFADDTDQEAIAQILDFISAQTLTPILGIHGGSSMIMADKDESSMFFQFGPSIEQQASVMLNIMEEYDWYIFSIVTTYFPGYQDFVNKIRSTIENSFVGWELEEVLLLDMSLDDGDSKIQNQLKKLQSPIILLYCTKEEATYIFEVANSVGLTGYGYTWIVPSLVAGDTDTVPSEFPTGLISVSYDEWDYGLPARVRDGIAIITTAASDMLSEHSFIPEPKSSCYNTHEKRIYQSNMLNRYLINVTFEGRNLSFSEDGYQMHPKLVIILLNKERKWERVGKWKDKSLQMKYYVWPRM

GluN2B ATD = test: Isothermal titration calorimetry (ITC), GluN2B ATD alone; type: binding, Rattus Norvegicus; conditions: GluN2B ATD individually injected with ifenprodil
[3] = target: T2, GluN1-1b (WT)/GluN2B (I82S) (Rattus norvegicus, UniProt P35439+Q00960, I82S); test: Ifenprodil dose-response, recordings from Xenopus oocytes; type: cell-based; conditions: mean ± s.d.
T2 construct: expressed in transfected cells; host or cells: Xenopus oocytes (per the earlier reading)

[4] = target: T3, GluN1/GluN2A receptors, GluN2A Met112Ile (Rattus norvegicus, UniProt P35439+Q00959, M112I); test: Ifenprodil sensitivity of mutant GluN1/GluN2A receptors; type: cell-based; conditions: GluN2A Met112Ile in GluN1/GluN2A receptors
T3 construct: expressed in transfected cells
T3 sequence (Q00959 23-1464 M112I, other chains not shown): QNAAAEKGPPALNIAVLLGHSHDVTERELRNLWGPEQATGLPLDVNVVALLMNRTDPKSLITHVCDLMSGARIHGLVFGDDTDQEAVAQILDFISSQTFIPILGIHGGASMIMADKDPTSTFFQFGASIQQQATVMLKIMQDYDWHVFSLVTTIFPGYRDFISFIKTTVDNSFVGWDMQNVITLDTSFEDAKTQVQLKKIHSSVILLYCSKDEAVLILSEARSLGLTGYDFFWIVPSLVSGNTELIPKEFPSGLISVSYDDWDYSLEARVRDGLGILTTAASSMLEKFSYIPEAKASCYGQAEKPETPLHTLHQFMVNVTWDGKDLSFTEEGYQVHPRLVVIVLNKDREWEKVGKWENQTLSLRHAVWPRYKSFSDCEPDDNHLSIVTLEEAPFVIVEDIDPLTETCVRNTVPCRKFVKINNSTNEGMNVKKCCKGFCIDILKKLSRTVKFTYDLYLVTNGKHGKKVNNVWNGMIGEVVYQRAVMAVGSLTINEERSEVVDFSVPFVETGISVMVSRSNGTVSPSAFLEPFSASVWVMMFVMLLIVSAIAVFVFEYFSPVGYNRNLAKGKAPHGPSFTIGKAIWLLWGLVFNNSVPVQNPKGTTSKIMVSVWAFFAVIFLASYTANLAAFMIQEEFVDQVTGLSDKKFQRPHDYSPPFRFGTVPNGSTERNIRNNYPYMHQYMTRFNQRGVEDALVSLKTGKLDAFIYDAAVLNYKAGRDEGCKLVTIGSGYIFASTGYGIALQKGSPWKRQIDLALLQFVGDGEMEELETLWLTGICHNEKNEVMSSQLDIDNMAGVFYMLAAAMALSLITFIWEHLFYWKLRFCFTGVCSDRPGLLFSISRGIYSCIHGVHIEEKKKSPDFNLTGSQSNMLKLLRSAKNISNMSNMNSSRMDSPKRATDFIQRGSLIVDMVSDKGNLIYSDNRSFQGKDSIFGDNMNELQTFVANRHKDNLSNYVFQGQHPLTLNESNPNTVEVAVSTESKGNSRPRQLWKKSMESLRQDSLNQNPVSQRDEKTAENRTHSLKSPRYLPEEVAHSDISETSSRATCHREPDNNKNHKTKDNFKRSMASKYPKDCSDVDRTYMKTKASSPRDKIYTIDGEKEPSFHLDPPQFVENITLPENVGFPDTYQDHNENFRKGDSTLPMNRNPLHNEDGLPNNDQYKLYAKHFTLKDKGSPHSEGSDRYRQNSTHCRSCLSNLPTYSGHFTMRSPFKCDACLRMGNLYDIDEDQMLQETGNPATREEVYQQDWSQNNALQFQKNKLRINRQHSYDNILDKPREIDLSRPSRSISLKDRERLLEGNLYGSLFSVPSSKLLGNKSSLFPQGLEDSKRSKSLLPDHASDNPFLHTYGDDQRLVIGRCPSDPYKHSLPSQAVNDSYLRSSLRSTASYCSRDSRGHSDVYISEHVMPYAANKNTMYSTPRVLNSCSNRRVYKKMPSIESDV
Source text: Thus, the insensitivity of the GluN1/GluN2A receptors to phenylethanolamine may stem from a fundamental difference in a mode of subunit association between GluN1/GluN2A and GluN1/GluN2B at ATD.

[5] = target: T4, GluN1-1b (WT)/GluN2B (Q110A) (Rattus norvegicus, UniProt P35439+Q00960, Q110A); test: Ifenprodil dose-response, recordings from Xenopus oocytes; type: cell-based; conditions: mean ± s.d.
T4 construct: expressed in transfected cells; host or cells: Xenopus oocytes (per the earlier reading)

[6] = target: T5, GluN1-4b (Asn70Cys)/GluN2B (Thr324Cys) (Rattus norvegicus, UniProt P35439+Q00960, N70C/T324C); test: Ion channel activity of cysteine mutant receptors by TEVC (R1-R1 cross-link); type: cell-based
T5 construct: expressed in transfected cells
T5 sequence (Q00960 27-1482 T324C, other chains not shown): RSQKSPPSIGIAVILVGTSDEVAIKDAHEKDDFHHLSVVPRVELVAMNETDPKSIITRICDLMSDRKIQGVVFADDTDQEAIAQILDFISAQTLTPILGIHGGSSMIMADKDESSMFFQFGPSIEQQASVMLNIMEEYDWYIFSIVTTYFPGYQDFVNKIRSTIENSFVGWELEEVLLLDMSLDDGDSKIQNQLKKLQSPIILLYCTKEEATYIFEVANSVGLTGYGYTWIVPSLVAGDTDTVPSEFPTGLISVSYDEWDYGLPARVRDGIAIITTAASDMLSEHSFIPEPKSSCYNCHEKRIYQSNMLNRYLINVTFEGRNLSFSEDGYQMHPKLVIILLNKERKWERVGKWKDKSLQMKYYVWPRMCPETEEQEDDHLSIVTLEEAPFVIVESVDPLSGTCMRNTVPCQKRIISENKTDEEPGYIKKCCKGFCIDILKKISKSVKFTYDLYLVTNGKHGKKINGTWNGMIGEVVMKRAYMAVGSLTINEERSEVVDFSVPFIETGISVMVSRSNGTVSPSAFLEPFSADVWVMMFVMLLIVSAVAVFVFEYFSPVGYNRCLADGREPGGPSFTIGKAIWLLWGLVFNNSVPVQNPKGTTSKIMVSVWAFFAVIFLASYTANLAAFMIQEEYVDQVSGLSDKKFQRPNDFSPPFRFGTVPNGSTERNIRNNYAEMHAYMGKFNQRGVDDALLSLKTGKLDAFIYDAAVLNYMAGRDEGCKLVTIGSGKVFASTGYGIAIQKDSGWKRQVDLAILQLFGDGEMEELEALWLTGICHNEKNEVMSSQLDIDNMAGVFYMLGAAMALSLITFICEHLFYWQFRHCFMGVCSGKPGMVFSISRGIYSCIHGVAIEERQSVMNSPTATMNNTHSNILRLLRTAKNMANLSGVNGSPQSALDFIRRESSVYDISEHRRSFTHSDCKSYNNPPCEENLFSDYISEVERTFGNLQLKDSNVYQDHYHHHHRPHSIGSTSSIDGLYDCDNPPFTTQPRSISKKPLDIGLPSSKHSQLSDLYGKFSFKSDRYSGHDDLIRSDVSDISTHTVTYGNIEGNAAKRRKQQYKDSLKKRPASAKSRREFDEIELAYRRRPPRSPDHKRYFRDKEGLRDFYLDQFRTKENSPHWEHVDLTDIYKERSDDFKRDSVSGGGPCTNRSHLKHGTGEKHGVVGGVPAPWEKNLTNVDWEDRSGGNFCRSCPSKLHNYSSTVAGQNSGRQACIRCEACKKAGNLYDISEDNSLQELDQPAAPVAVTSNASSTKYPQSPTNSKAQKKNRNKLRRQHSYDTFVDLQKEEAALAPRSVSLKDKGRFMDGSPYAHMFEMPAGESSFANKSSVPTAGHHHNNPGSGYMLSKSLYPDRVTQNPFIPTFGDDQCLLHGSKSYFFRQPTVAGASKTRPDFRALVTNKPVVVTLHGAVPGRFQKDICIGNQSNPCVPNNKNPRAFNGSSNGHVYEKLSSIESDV
Source text: (§1) To further validate the physiological relevance of the hetero-dimeric assembly, cysteine mutants at the subunit interface were engineered using the ifenprodil-bound GluN1b/GluN2B ATD structure as a guide in a context of the intact rat GluN1-4b/GluN2B receptors so that they would form spontaneous disulphide bonds if the mutated residues are proximal to each others. Toward this end, two pairs of cysteine mutants, GluN1-4b (Asn70Cys)/GluN2B (Thr324Cys) and GluN1-4b (Leu341Cys)/GluN2B (Asp210Cys) were designed, which “locked” the R1-R1 and R1-R2 interfaces, respectively FIG. 12a-b). The mutant receptors were then expressed in a mammalian cell culture, and analyzed for formation of disulphide-linked oligomers in western blots. When mutant receptors of one subunit were expressed with wild-type receptors of the other, they gave rise to monomeric bands (110 KDa and 170 KDa for GluN1-4b and GluN2B, respectively; arrow 2 and 3) identical to the wild-type GluN1-4b/GluN2B receptors in both reducing and non-reducing condition. […]
(§2) To understand the functional effects of “locking” the R1-R1 and R1-R2 interactions in the GluN1b/GluN2B ATDs, the ion channel activities of the cysteine mutant receptors were measured by TEVC. […]

[7] = target: T6, GluN1-4b (Leu341Cys)/GluN2B (Asp210Cys) (Rattus norvegicus, UniProt P35439+Q00960); test: Ion channel activity of cysteine mutant receptors by TEVC (R1-R2 cross-link); type: cell-based; conditions: R1-R2 cross-link, non-reducing, even at 3 μM ifenprodil
T6 construct: expressed in transfected cells
Source text: as §1, §2

[8] = target: T7, GluN1-4b (Leu341Cys)/GluN2B (Asp210Cys) (Rattus norvegicus, UniProt P35439+Q00960, D210C/L320C); test: as above; type: cell-based; conditions: R1-R2 cross-link broken by application of DTT
T7 construct: expressed in transfected cells
Source text: as §1, §2

[9] = target: T8, GluN1-1b (F113S)/GluN2B (WT) (Rattus norvegicus, UniProt P35439+Q00960, F113S); test: Ifenprodil dose-response, recordings from Xenopus oocytes; type: cell-based; conditions: mean ± s.d.
T8 construct: expressed in transfected cells; host or cells: Xenopus oocytes (per the earlier reading)

[10] = target: T9, GluN1-1a (WT)/GluN2B (WT) (Rattus norvegicus, UniProt P35439+Q00960); test: as above; type: cell-based; conditions: mean ± s.d.
T9 construct: expressed in transfected cells; host or cells: Xenopus oocytes (per the earlier reading)

[11] = target: T10, GluN1-1b (WT)/GluN2B (I111M) (Rattus norvegicus, UniProt P35439+Q00960, I111M); test: as above; type: cell-based; conditions: mean ± s.d.
T10 construct: expressed in transfected cells; host or cells: Xenopus oocytes (per the earlier reading)

[12] = target: T11, GluN1-1b (WT)/GluN2B (I111S) (Rattus norvegicus, UniProt P35439+Q00960, I111S); test: as above; type: cell-based; conditions: mean ± s.d.
T11 construct: expressed in transfected cells; host or cells: Xenopus oocytes (per the earlier reading)
T11 sequence (Q00960 27-1482 I111S, other chains not shown): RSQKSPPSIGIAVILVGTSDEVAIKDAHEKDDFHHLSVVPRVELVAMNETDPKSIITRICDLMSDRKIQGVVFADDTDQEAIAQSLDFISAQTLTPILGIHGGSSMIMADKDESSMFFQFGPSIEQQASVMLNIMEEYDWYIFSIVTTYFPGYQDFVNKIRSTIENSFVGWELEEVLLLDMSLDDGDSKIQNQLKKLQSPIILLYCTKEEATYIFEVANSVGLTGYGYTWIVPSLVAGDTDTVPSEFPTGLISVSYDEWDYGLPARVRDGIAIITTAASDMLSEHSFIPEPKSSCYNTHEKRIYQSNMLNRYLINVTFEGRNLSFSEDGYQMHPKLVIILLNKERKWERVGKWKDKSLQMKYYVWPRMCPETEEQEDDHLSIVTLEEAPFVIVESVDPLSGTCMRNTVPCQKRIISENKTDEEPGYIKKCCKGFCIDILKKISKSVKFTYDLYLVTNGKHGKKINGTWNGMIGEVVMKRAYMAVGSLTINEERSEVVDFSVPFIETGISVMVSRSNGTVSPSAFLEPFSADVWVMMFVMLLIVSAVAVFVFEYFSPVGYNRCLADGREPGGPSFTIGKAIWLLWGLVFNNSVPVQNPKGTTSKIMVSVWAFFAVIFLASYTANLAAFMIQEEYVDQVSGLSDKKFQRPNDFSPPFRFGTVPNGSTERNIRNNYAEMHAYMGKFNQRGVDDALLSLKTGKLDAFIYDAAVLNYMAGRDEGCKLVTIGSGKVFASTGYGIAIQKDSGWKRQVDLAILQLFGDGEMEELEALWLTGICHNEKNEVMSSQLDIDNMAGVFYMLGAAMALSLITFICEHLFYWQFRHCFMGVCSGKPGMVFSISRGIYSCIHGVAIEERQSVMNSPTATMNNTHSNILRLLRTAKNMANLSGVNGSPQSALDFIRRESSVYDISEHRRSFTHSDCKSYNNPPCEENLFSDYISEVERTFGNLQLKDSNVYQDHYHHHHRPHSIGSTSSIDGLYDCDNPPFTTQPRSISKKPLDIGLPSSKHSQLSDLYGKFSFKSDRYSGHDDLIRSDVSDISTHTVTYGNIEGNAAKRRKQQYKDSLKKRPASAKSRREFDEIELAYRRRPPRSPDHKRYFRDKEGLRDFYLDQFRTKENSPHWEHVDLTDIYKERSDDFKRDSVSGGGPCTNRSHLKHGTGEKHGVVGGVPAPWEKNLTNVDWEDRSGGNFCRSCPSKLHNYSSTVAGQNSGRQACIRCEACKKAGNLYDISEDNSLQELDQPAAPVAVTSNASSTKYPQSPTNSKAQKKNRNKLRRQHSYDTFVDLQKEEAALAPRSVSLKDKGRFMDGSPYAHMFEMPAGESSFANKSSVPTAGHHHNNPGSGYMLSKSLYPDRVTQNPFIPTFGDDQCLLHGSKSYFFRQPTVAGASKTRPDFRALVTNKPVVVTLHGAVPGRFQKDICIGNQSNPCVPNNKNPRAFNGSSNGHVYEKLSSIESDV

[13] = target: T12, GluN1-1b (A75Q)/GluN2B (WT) (Rattus norvegicus, UniProt P35439+Q00960, A75Q); test: as above; type: cell-based; conditions: mean ± s.d.
T12 construct: expressed in transfected cells; host or cells: Xenopus oocytes (per the earlier reading)

[14] = target: T13, GluN1-1b (WT)/GluN2B (WT) (Rattus norvegicus, UniProt P35439+Q00960); test: as above; type: cell-based; conditions: mean ± s.d.
T13 construct: expressed in transfected cells; host or cells: Xenopus oocytes (per the earlier reading)

Row | Kd ([2]; ITC, mixture of GluN1b and GluN2B ATD proteins, read-out: Kd) | SMILES | % inhibition [1] | binding (heat) by ITC (GluN1b ATD) | Kd [2] | binding (heat) by ITC (GluN2B ATD) | % inhibition [3] | ifenprodil sensitivity [4] | % inhibition [5] | effect of the disulphide bond on ifenprodil sensitivity [6] | ifenprodil inhibition [7] | ifenprodil sensitivity after breaking the disulphide cross-link [8] | % inhibition [9] | % inhibition [10] | % inhibition [11] | % inhibition [12] | % inhibition [13] | % inhibition [14]
1 |  | C[C@@H]([C@H](O)c1ccc(O)cc1)N1CCC(Cc2ccccc2)CC1 (racemic) [ifenprodil] | 90.0 ± 3.7% | no evidence of binding | 320 nM | no evidence of binding | 55.7 ± 0.7% | did not confer | 91.5 ± 2.2% | only a minor effect | almost completely abolished | regain sensitivity to ifenprodil | 87.7 ± 1.4% | 95.0 ± 2.5% | 93.0 ± 2.2% | 69.3 ± 2.6% | 82.1 ± 1.4% | 95.2 ± 2.0%
2 | 60 nM | C[C@@H](CN1CCC(Cc2ccccc2)CC1)[C@@H](O)c1ccc(O)cc1 [Ro 25-6981] |  |  |  |  |  |  |  |  |  |  |  |  |  |  |  | 
